Read-outs that look alike come from different tables or passages of the source.
Legend:
Type in all cases: in vivo
[1] = tested on: Armyworm (Mythimna separata (Walker)); assay: Test against armyworm, Potter tower method; conditions: for mortality at 12.5 µg/mL / mortality at 50 µg/mL / mortality at 500 µg/mL: Mythimna separata, read-out: Activity (mortality) level against armyworm; for Activity against armyworm, further screening (in words): compared with chlorantraniliprole (D1)
Outline: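 Third-instar larvae, ten per dish on corn leaf fragments, were sprayed in a Potter tower with 1 mL of compound in DMF diluted in 0.2% Tween 80, in triplicate. Mortality was scored after 72 h and reported as mean mortality against a solvent blank.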

[2] = tested on: Spodoptera litura (Fabricius); assay: Test against Spodoptera litura, leaf disc dip; conditions: after 72 hours; for Activity against Spodoptera litura (in words): second-instar larvae
Experimental: (§1) The test compound was dissolved in an appropriate solvent such as N,N-dimethylformamide, and then diluted with 0.2% aqueous solution of Tween 80 to the desired concentration, Those without the test compounds were set as blank controls, the treatments were replicated 3 times. The cabbage leaves were perforated to get 18 mm diameter leaf discs by a hole puncher, 5 leaf discs were dipped in the test solution for 10 seconds and then put into a Petri dish (diameter 90 mm) padded with moisturizing filter paper, after air-drying, the leaf discs were infested with no less than ten second-instar larvae of test insects which were starved for 4 hours, and then the dish was covered and placed in a chamber for culture. After 72 hours, the number of dead insects was investigated, the mortality was calculated, and the regression equation, correlation coefficient (r) and the median lethal concentration (LC50) were obtained using Probit analysis method.

[3] = tested on: Diamondback moth (Plutella xylostella (Linnaeus)); assay: Test against diamondback moth, leaf disc dip; conditions: second-instar larvae, after 72 hours
Experimental: as §1

Aphis fabae = assay: Test against aphid, leaf dip method (Aphis fabae); conditions: foliar; for mortality at 12.5 µg/mL: 12.5 mg/L; for mortality at 12.5 µg/mL / mortality at 50 µg/mL / mortality at 200 µg/mL / mortality at 500 µg/mL: read-out: Activity (mortality) level against Aphis fabae; for mortality at 200 µg/mL: 200 mg/L
Outline: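 Horsebean seedlings carrying at least twenty 3-day-old Aphis fabae dipped 5 seconds in compound solutions (DMF, diluted in 0.2% aqueous Tween 80), three replicates with solvent blank. Live and dead insects counted after 24 hours.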

[4] = 12.5 mg/L, third-instar larvae, after 72 hours
[5] = 50 mg/L, third-instar larvae, after 72 hours
[6] = 500 mg/L, third-instar larvae, after 72 hours

| Compound | mortality at 12.5 µg/mL [1, 4] [%] | mortality at 50 µg/mL [1, 5] [%] | mortality at 500 µg/mL [1, 6] [%] | Activity against armyworm, further screening (in words) [1] | Median lethal concentration LC50 against Spodoptera litura, compared with D1 ([2]; same conditions) | Activity against Spodoptera litura (in words) [2] | Activity against diamondback moth (in words) [3] | mortality at 12.5 µg/mL (Aphis fabae; after 24 hours) [%] | mortality at 50 µg/mL (Aphis fabae; 50 mg/L, after 24 hours) [%] | mortality at 200 µg/mL (Aphis fabae; after 24 hours) [%] | mortality at 500 µg/mL (Aphis fabae; 500 mg/L, after 24 hours) [%] | LC50 (Aphis fabae; further test, read-out: LC50 against Aphis fabae) [µg/mL] | Activity against armyworm ([1]; 1.25 mg/L) | mortality at 12.5 µg/mL ([1]; 72 h) [%] | mortality at 50 µg/mL ([1]; 72 h) [%] | mortality at 500 µg/mL ([1]; 72 h) [%] | mortality at 50 µg/mL (Aphis fabae; 24 h) [%] | mortality at 500 µg/mL (Aphis fabae; 24 h) [%] |
| --- | --- | --- | --- | --- | --- | --- | --- | --- | --- | --- | --- | --- | --- | --- | --- | --- | --- | --- |
| CCN(CC)C(=O)c1cc(Cl)cc(Cl)c1N(C)C(=O)c1cc(Br)nn1-c1ncccc1Cl [Compound 15, N-[2,4-dichloro-6-[(diethylamino)carbonyl]phenyl]-N-methyl-1-(3-chloro-2-pyridinyl)-3-bromo-1H-pyrazole-5-carboxamide] | 90 to 100 | 90 to 100 | 90 to 100 | excellent activity | lower than that of chlorantraniliprole (D1) | high activity at very low concentration | high activity at very low concentration | 90 to 100 | 90 to 100 | 90 to 100 | 90 to 100 | < 1 |  |  |  |  |  |  |
| CCN(C)C(=O)c1cc(Cl)cc(Br)c1N(C)C(=O)c1cc(Br)nn1-c1ncccc1Cl [Compound 32, N-[2-bromo-4-chloro-6-[(methyl(ethyl)amino)carbonyl]phenyl]-N-methyl-1-(3-chloro-2-pyridinyl)-3-bromo-1H-pyrazole-5-carboxamide] | 90 to 100 | 90 to 100 | 90 to 100 | excellent activity |  | high activity at very low concentration | high activity at very low concentration | 90 to 100 | 90 to 100 | 90 to 100 | 90 to 100 |  |  |  |  |  |  |  |
| CNC(=O)c1cc(Cl)cc(C)c1NC(=O)c1cc(Br)nn1-c1ncccc1Cl [Compound D1, chlorantraniliprole, reference compound] |  |  |  |  |  | high activity at very low concentration | high activity at very low concentration |  |  |  |  |  | less than 50% | 90 to 100 | 90 to 100 | 90 to 100 | 0 to 50 | 90 to 100 |

From patent publication US20220132846A1, “1-PYRIDYL-PYRAZOLYL AMIDE COMPOUNDS AND PREPARATION AND USES THEREOF” (HUNAN RESEARCH INSTITUTE OF CHEMICAL INDUSTRY CO., LTD., priority 2019, published 2022)
